The record followed here is patent US8551939B2, “Peptide analogues, particularly for the treatment of chronic pain” (Instytut Medycyny Doswiadczalnej I Klinicznej, priority 2008, dated 2013).

Molecules are shown by their SMILES. Where a SMILES comes first, the peptide text is derived from it. [ ]: non-standard residue; d: D form.

Common to all, as to assay type: in vivo
The subject of assay [1] is mice with inflammation due to tumour take. The experiment in a line: Oncogenic pain model (murine melanoma cells into the hind leg), tail immersion in 55° C. water. To be noted: two weeks of melanoma tumour development, intraperitoneal, 30 mg/kg. Here is the method:
In an animal oncogenic pain model, in mice, inflammation was induced via the administration of about a million murine melanoma cells into the hind leg. After two days we observed increasing inflammation due to tumour take. After two weeks of tumour development we examined the effect of Tyrosyl-D-arginyl-phenylalanyl-phenylalanyl-lysyl-lysyl-prolyl-tyrosyl-isoleucyl-leucine against acute pain elicited by tail immersion in 55° C. water.

Assay [2] deals with mice with inflammation. Put plainly: Tail immersion (55° C.) acute pain test in mice with Freund's adjuvant induced paw inflammation. To be noted: one week after Freund's adjuvant into the paw, intravenous, 20 mg/kg. Here is the method:
Inflammation was induced in mice by administering Freund's adjuvant into the paw. Inflammation was observed within two days. After a week, we examined the analgesic activity of the peptide analogue Tyrosyl-D-lysyl-phenylalanyl-phenylalanyl-arginyl-arginyl-prolyl-tyrosyl-isoleucyl-leucine against acute pain elicited by immersion of the tail into 55° C.

Assay [3] has as its system rats. The experiment in a line: Analgesic activity against thermal pain after administration into the subarachnoid space via cannulae. To be noted: subarachnoid cannula. The source says:
Two weeks prior to the experiment, rats were implanted with cannulae into the subarachnoid space. On the day of the experiment we examined analgesic activity by administering the peptide Tyrosyl-D-lysyl-phenylalanyl-phenylalanyl-lysyl-lysyl-prolyl-tyrosyl-isoleucyl-leucine.

On to `CC[C@H](C)[C@H](NC(=O)[C@H](Cc1ccc(O)cc1)NC(=O)[C@@H]1CCCN1C(=O)[C@H](CCCCN)NC(=O)[C@H](CCCCN)NC(=O)[C@H](Cc1ccccc1)NC(=O)[C@H](Cc1ccccc1)NC(=O)[C@@H](CCCNC(=N)N)NC(=O)[C@@H](N)Cc1ccc(O)cc1)C(=O)N[C@@H](CC(C)C)C(=O)O` [Tyrosyl-D-arginyl-phenylalanyl-phenylalanyl-lysyl-lysyl-prolyl-tyrosyl-isoleucyl-leucine] (H-Y[dR]FFKKPYIL-OH), for which the “effect against acute pain elicited by tail immersion in 55° C. water” value in assay [1] is “complete analgesis”.
As for `CC[C@H](C)[C@H](NC(=O)[C@H](Cc1ccc(O)cc1)NC(=O)[C@@H]1CCCN1C(=O)[C@H](CCCNC(=N)N)NC(=O)[C@H](CCCNC(=N)N)NC(=O)[C@H](Cc1ccccc1)NC(=O)[C@H](Cc1ccccc1)NC(=O)[C@@H](CCCCN)NC(=O)[C@@H](N)Cc1ccc(O)cc1)C(=O)N[C@@H](CC(C)C)C(=O)O` [Tyrosyl-D-lysyl-phenylalanyl-phenylalanyl-arginyl-arginyl-prolyl-tyrosyl-isoleucyl-leucine] (H-Y[dK]FFRRPYIL-OH), in assay [2], the “analgesic activity against acute pain elicited by immersion of the tail into 55° C.” value is “complete analgesis”.
As for `CC[C@H](C)[C@H](NC(=O)[C@H](Cc1ccc(O)cc1)NC(=O)[C@@H]1CCCN1C(=O)[C@H](CCCCN)NC(=O)[C@H](CCCCN)NC(=O)[C@H](Cc1ccccc1)NC(=O)[C@H](Cc1ccccc1)NC(=O)[C@@H](CCCCN)NC(=O)[C@@H](N)Cc1ccc(O)cc1)C(=O)N[C@@H](CC(C)C)C(=O)O` [Tyrosyl-D-lysyl-phenylalanyl-phenylalanyl-lysyl-lysyl-prolyl-tyrosyl-isoleucyl-leucine] (H-Y[dK]FFKKPYIL-OH), the “change of analgesic effect on repeated administration (tolerance)” value in assay [3] (daily dose of 5 mg) is reported as “no changes in the extensive analgesic effect”. In addition, in assay [3] (dose of 5 mg), the “analgesic activity against thermal pain” value is recorded as “complete analgesis” and the “duration of complete analgesis against thermal pain” value turned out to be 1 h.
